Experimental data taken from PubChem BioAssay (NCI).
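Growth conditions: 96-well plates. Treatment: test compound, 48 hours, 5 concentrations. Analysis: linear interpolation between bracketing concentrations; unreached endpoints set to highest concentration. GI50 is the concentration that inhibits growth by half. TGI marks complete inhibition of growth.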

What was measured:
Assay in all cases: NCI-60 cell line screen, 48 h
M14 melanoma = test system: M14 melanoma
UACC-62 melanoma = test system: UACC-62 melanoma
NCI-H23 lung = test system: NCI-H23 lung
MCF7 breast = test system: MCF7 breast
MOLT-4 leukemia = test system: MOLT-4 leukemia
SK-MEL-5 melanoma = test system: SK-MEL-5 melanoma
HOP-62 NSCLC = test system: HOP-62 NSCLC
OVCAR-5 ovarian = test system: OVCAR-5 ovarian
UO-31 renal = test system: UO-31 renal
NCI-H522 lung = test system: NCI-H522 lung

Structure (SMILES)	GI50 (M14 melanoma) [µM]	TGI (M14 melanoma) [µM]	GI50 (UACC-62 melanoma) [µM]	TGI (UACC-62 melanoma) [µM]	GI50 (NCI-H23 lung) [µM]	TGI (NCI-H23 lung) [µM]	GI50 (MCF7 breast) [µM]	TGI (MCF7 breast) [µM]	GI50 (MOLT-4 leukemia) [µM]	TGI (MOLT-4 leukemia) [µM]	GI50 (SK-MEL-5 melanoma) [µM]	TGI (SK-MEL-5 melanoma) [µM]	GI50 (HOP-62 NSCLC) [µM]	TGI (HOP-62 NSCLC) [µM]	GI50 (OVCAR-5 ovarian) [µM]	TGI (OVCAR-5 ovarian) [µM]	GI50 (UO-31 renal) [µM]	TGI (UO-31 renal) [µM]	TGI (NCI-H522 lung) [µM]	GI50 (NCI-H522 lung) [µM]
O=C(O)c1ccc2c(c1Nc1ccccc1)C(=O)c1ccccc1C2=O	38.1	> 100	35.6	> 100	19	> 100	38.1	> 100	> 100	> 100	73.1	> 100	35.6	> 100	> 100	> 100	11.8	> 100	–	–
O=c1c2ccccc2nc(-c2ccc(Br)cc2)n1NC1OC(CO)C(O)C(O)C1O (stereo not drawn)	–	> 100	–	> 100	–	> 100	–	–	–	> 100	–	> 100	–	> 100	–	> 100	–	> 100	> 100	–
N=C1N(c2ccccc2)C(=O)C23CCCC2C13N1CCOCC1 (stereo not drawn)	–	> 100	–	> 100	–	> 100	–	–	–	> 100	–	> 100	–	> 100	–	> 100	–	> 100	> 100	–
Cc1ccc([N+](=O)[O-])cc1NC(=O)C(=O)Cc1occc(=O)c1O	–	–	–	> 100	–	–	–	–	–	–	–	> 100	–	> 100	–	> 100	–	> 100	> 100	–
NC(CNO)C(=O)O (stereo not drawn)	–	> 100	–	> 100	–	> 100	–	> 100	–	–	–	> 100	–	> 100	–	> 100	–	> 100	> 100	–
C[C@@H](CO)OCOCc1ccccc1	–	> 100	–	> 100	–	> 100	–	–	–	> 100	–	> 100	–	> 100	–	–	–	> 100	> 100	–
COc1cc(/C=C/C(=O)c2ccc(Nc3ncnc4ccccc34)cc2)cc(OC)c1	3.95	14.6	7.7	27.7	5.08	38.2	1.84	5.79	2.4	17.1	–	–	7.13	22.1	20.3	57.3	10.5	28.6	30.1	6.69
COC(=O)C1=CN=C(C(=O)OC)NN1	–	> 100	–	> 100	–	> 100	–	–	–	> 100	–	> 100	–	> 100	–	–	–	> 100	> 100	–
C/C=C/C=N/N(C(=O)c1cc([N+](=O)[O-])cc([N+](=O)[O-])c1)C1=NC(c2ccccc2)C(c2ccccc2)=NN1 (stereo not drawn)	–	> 100	–	> 100	–	77.9	–	–	–	> 100	–	81.8	–	> 100	–	> 100	–	> 100	57	–
Cc1oc2c(C)c(O)c3c(c2c1C1(C)OCCO1)C(=O)C=C(Cl)C3=O	–	> 100	–	–	–	> 100	–	–	–	> 100	–	> 100	–	> 100	–	> 100	–	> 100	> 100	–
Cc1ccccc1NC(=O)C(=O)C(c1cnc2ccc([N+](=O)[O-])cc2n1)[N+](=O)[O-] (stereo not drawn)	–	> 100	–	> 100	–	> 100	–	–	–	> 100	–	> 100	–	> 100	–	> 100	–	> 100	> 100	–
COc1ccc(NC(=O)C(=O)C2CNC(=O)NC2=O)c(OC)c1 (stereo not drawn)	–	> 100	–	> 100	–	> 100	–	–	–	> 100	–	> 100	–	> 100	–	> 100	–	> 100	> 100	–
CN(C)C(=O)/N=c1\ss/c(=N\C(=S)N(C)C)n1-c1ccccc1	–	> 74.5	1.92	> 100	–	> 100	–	–	0.158	> 82.1	–	> 100	–	> 100	–	> 100	–	> 100	8.12	–
NC(=O)N/N=C(\C(=O)C(=O)Nc1ccc(Cl)c(C(F)(F)F)c1)c1nc2ccc(C(=O)c3ccccc3)cc2[nH]c1=O	–	> 100	–	> 100	–	> 100	–	–	–	> 100	–	> 100	–	–	–	> 100	–	> 100	> 100	–
CCCCCCCC/C=C/CCCCCCCC1=NC(C)(C)CN1C(C)C	1.53	2.86	1.61	3.02	1.51	2.83	1.52	2.95	–	–	1.61	2.96	1.58	2.92	1.54	2.88	1.43	2.81	–	–
Nc1ncnc(NC2C=C(CO)C(O)C2O)c1[N+](=O)[O-] (stereo not drawn)	–	> 100	–	> 100	–	> 100	–	–	–	> 100	–	> 100	–	> 100	–	> 100	–	> 100	–	–
C=C[C@]1(C)CCC2=C(CCC3C2(C)CCC[C@]3(C)CO)C1 (stereo partly drawn)	–	> 100	–	> 100	–	> 100	–	–	–	84.9	–	> 100	–	> 100	–	> 100	–	> 100	52.5	–
C#CCN=C(N/N=C/c1ccc([N+](=O)[O-])o1)NS(=O)(=O)c1cc(C)c(Cl)cc1SCC(N)=O	–	–	47.3	> 100	18.5	33.1	6.59	22.5	13.2	31.9	4.14	15.2	12.9	25.7	19.9	34.5	17.6	31.4	23.3	10
COC(=O)C(C(=O)C(=O)NC1=C(Cl)C(=O)c2ccccc2C1=O)c1csc(-n2nc(-c3ccccc3)cc2-c2ccccc2)n1 (stereo not drawn)	–	> 100	–	> 100	–	> 100	–	–	–	> 100	–	–	–	> 100	–	> 100	–	> 100	> 100	–
Oc1ccc(CNCc2ccccc2)c2cccnc12	–	12	–	> 34.8	–	> 100	–	> 100	–	18.9	–	–	–	> 51.2	–	99.2	–	> 24.4	> 100	–
COC(=O)/C(C#N)=C1\CCC(O)N1C (stereo not drawn)	–	> 100	–	> 100	–	> 100	–	–	–	> 100	–	–	–	> 100	–	> 100	–	> 100	> 100	–
COC(=O)C(=O)C(C(=O)C(=O)Nc1ccc(Cl)cc1C)c1nc2ccc(C(=O)c3ccccc3)cc2[nH]c1=O (stereo not drawn)	–	> 100	–	> 100	–	> 100	–	–	–	> 100	–	–	–	> 100	–	> 100	–	> 100	> 100	–
